Drawing on patent publication US20250275991A1, “ORAL COMPLEMENT FACTOR D INHIBITORS” (BioCryst Pharmaceuticals, Inc, priority 2019, published 2025), this text covers IC50 for 13 compounds.

The structures appear in SMILES notation.

Sequence of Factor D (P00746 26-253): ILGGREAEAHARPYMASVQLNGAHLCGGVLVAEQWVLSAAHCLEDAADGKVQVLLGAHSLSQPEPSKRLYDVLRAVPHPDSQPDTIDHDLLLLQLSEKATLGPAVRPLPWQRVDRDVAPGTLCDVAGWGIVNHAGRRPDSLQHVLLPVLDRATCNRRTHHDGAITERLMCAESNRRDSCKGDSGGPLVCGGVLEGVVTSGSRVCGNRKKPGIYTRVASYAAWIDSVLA

This experiment has as its target Factor D (Homo sapiens, UniProt P00746). The experiment can be described thus: Factor D esterolytic assay. The experiment is classed as biochemical. The note with it: substrate Z-Lys-SBzl 1.29 mM, 100 mM HEPES, 500 mM NaCl, pH 7.5, 10% DMSO, tested a minimum of three times. How it is done:
The IC50 value of a compound (i.e., the concentration of the compound that inhibits 50% of the enzymatic activity) was calculated according to the procedure reported in U.S. Pat. No. 6,653,340 B1, e.g., column 74 (incorporated by reference).
Specifically, the compounds were dissolved in a stock solution of DMSO at 10.0 or 100 mM. A portion of this stock solution was added to assay buffer in a final volume of 50 μL. Controls included buffer alone and enzyme solutions to which DMSO was added. Substrate was added to the reaction wells immediately or after incubation at room temperature. The reaction rates were measured spectrophotometrically by the generation of product at 405 nm for 600 sec. Background absorbance at 690 nm was measured and subtracted from the absorbance at 405 nm for each well.
The reaction rate for enzyme alone was compared to the rate of enzyme in the presence of inhibitor and the percent inhibition was calculated as shown below: […]
An established esterolytic assay for the measurement of Factor D activity and inhibition of Factor D activity was used (Kam, C. M.; McRae, B. J.; Harper, J. W.; Niemann, M. A.; Volanakis, J. E.; Powers, J. C. Human complement proteins D, C2, and B Active site mapping with peptide thioester substrates. J Biol. Chem. 1987, 262, 3444-3451). For this assay Z-Lys-SBzl, 1.29 mM (Kim, S.; Narayana, S. V. L; Volanakis, J. E. Mutational analysis of the substrate binding site of human complement Factor D. Biochemistry. 1994, 33, 14393-14399.) was used as the substrate for Factor D ([…]). Hydrolysis of this compound by Factor D liberated a free sulfhydryl group which is then reacted with 5,5′-dithiobis(2nitrobenzoic acid) producing an intense yellow color (Habeeb, A. F. S. A. Reaction of protein sulfhydryl groups with Ellman's Reagent. Methods in Enzymol. 1976, 25, 457-464). The assays were performed in 96 well microtiter plates and rates of hydrolysis were monitored at 405 nm on a Biotek Synergy H1 plate reader. Hydrolysis rates were reported as change in mOD/min. The assay was conducted in 100 mM HEPES, 500 mM NaCl, pH 7.5 containing 10% DMSO in a final volume of 50 μL per well.
An IC50, a compound concentration which inhibits 50% of the enzymatic activity, was calculated. Compounds in the examples were tested a minimum of three times.
Consider `CCNCc1cccc(-c2cc(COc3ccccc3CC(=O)O)cc3ccoc23)c1` [Compound 21c, 2-(2-((7-(3-((ethylamino)methyl)phenyl)benzofuran-5-yl)methoxy)phenyl)acetic acid], for which the concentration for half-maximal inhibition (IC50) (as a rule, the point on the concentration scale where inhibition reaches its midpoint) is under 1000 nM. The result for `Cc1ccc(CC(=O)O)c(OCc2cc(-c3ccnc(CN)c3)c3occc3c2)c1C` [Compound 22h, 2-(2-((7-(2-(aminomethyl)pyridin-4-yl)benzofuran-5-yl)methoxy)-3,4-dimethylphenyl)acetic acid] reads under 1000 nM. As to `CC(=O)OCc1cc2cc(COc3ccccc3CC(=O)O)cc(-c3cccc(CN)c3)c2o1` [Compound 23h, 2-(2-((2-(acetoxymethyl)-7-(3-(aminomethyl)phenyl)benzofuran-5-yl)methoxy)phenyl)acetic acid], the IC50 was under 1000 nM. The result for `CC(C)C(N)C(=O)OCc1cc2cc(COc3ccccc3CC(=O)O)cc(-c3cccc(CN)c3)c2o1` (stereo not shown) [Compound 24b, 2-(2-((2-(((2-amino-3-methylbutanoyl)oxy)methyl)-7-(3-(aminomethyl)phenyl)benzofuran-5-yl)methoxy)phenyl)acetic acid] reads under 1000 nM.

As for `CCOC(=O)NCc1cc2cc(COc3ccccc3CC(=O)O)cc(-c3cccc(CN)c3)c2o1` [Compound 25h, 2-(2-((7-(3-(aminomethyl)phenyl)-2-(((ethoxycarbonyl)amino)methyl)benzofuran-5-yl)methoxy)phenyl)acetic acid], the IC50 is under 1000 nM.

Regarding `CCCCCCC(=O)NCc1ccc(CC(=O)O)c(OCc2cc(-c3cccc(CN)c3)c3occc3c2)c1` [Compound 26f, 2-(2-((7-(3-(aminomethyl)phenyl)benzofuran-5-yl)methoxy)-4-(heptanamidomethyl)phenyl)acetic acid], the IC50 is under 1000 nM. Next, `CC(C)OC(=O)NCc1ccc(CC(=O)O)c(OCc2cc(-c3cccc(CN)c3)c3occc3c2)c1` [Compound 27c, 2-(2-((7-(3-(aminomethyl)phenyl)benzofuran-5-yl)methoxy)-4-((isopropoxycarbonylamino)methyl)phenyl)acetic acid]: under 1000 nM; `CC(C)CC(=O)NCc1ccc(CC(=O)O)c(OCc2cc(-c3cccc(CN)c3)c3occc3c2)c1` [Compound 28c, 2-(2-((7-(3-(aminomethyl)phenyl)benzofuran-5-yl)methoxy)-4-((3-methylbutanamido)methyl)phenyl)acetic acid]: under 1000 nM; `CCOC(=O)NCc1ccc(CC(=O)O)c(OCc2cc(-c3cccc(CN)c3)c3occc3c2)c1` [Compound 29c, 2-(2-((7-(3-(aminomethyl)phenyl)benzofuran-5-yl)methoxy)-4-((ethoxycarbonylamino)methyl)phenyl)acetic acid]: under 1000 nM. The result for `CC(=O)NCc1ccc(CC(=O)O)c(OCc2cc(-c3cccc(CN)c3)c3occc3c2)c1` [Compound 30c, 2-(4-(acetamidomethyl)-2-((7-(3-(aminomethyl)phenyl)benzofuran-5-yl)methoxy)phenyl)acetic acid] reads under 1000 nM. The result for `NCc1cccc(-c2cc(COc3cc(CN)ccc3CC(=O)O)cc3c(C(F)(F)F)coc23)c1` [Compound 31d, 2-(4-(aminomethyl)-2-((7-(3-(aminomethyl)phenyl)-3-(trifluoromethyl)benzofuran-5-yl)methoxy)phenyl)acetic acid] reads under 1000 nM; that for `CCOP(=O)(NCc1ccc(CC(=O)O)c(OCc2cc(-c3cccc(CN)c3)c3occc3c2)c1)OCC` [Compound 32c, 2-(2-((7-(3-(aminomethyl)phenyl)benzofuran-5-yl)methoxy)-4-((diethoxyphosphorylamino)methyl)phenyl)acetic acid], under 1000 nM. Regarding `CS(=O)(=O)NCc1ccc(CC(=O)O)c(OCc2cc(-c3cccc(CN)c3)c3occc3c2)c1` [Compound 33c, 2-(2-((7-(3-(aminomethyl)phenyl)benzofuran-5-yl)methoxy)-4-(methylsulfonamidomethyl)phenyl)acetic acid], the half-inhibitory concentration (IC50) is under 1000 nM.
